Laboratory results taken from US20250009895A1, “DRUG LOADING MONOMOLECULAR NANO POLYMER, PRODRUG, MICELLE, DRUG DELIVERY SYSTEM, PREPARATION METHOD, AND USE” (priority 2021, published 2025).

Test system: A549 lung cancer subcutaneous xenograft model
Test: Tumor drug accumulation test, Pt in tumor by ICP-MS
Type: in vivo, Bal b/c nude mice
Details: tail vein injection, CPT 5 mg/kg and Pt 1.8 mg/kg
Procedure: The tumor model used in this example was A549 lung cancer subcutaneous xenograft model. Female Bal b/c nude mice at the age of 8 weeks were administrated with the drug formulation via tail vein injection at a dose of 200 microliters with CPT at 5 mg/kg and Pt at 1.8 mg/kg. Equivalent amounts of cisplatin and the self-assembled dual-drug nano-formulation cisplatin@PEG-PGlu(ss-CPT) served as controls. At different time points after the intravenous injection, the mice were dissected, and the tumor tissues were collected and fully dissolved in concentrated nitric acid. The Pt contents in the tumor tissues were measured using ICP-MS.

SMILES: N.N.[Cl][Pt][Cl] [cisplatin]
- drug (Pt) concentration / enrichment in the tumor: relatively low
